Measured values: ChEMBL document CHEMBL1148688, “4-Aryl-5-cyano-2-aminopyrimidines as VEGF-R2 inhibitors: synthesis and biological evaluation” (Bioorg Med Chem Lett, 2007)

Columns and labels:
[1] = target: Vascular endothelial growth factor receptor 2 (Homo sapiens, UniProt P35968); experiment: Inhibition of VEGFR2 activity
[2] = target: Cyclin-dependent kinase 1 (Homo sapiens, UniProt P06493); experiment: Inhibition of CDK1 activity
[3] = Oral bioavailability in nude mouse at 3 mg/kg; assay type: ADME, organism-based; conditions: in vivo
Mus musculus [4] = experiment: Decrease in body weight in C57BL/6 mouse at 100 to 175 mg/kg, po; conditions: in vivo
[5] = Half life in nude mouse at 100 mg/kg, po; assay type: ADME, organism-based; design: dose 100 mg/kg, route oral; conditions: in vivo
[6] = Area under curve in nude mouse at 3 mg/kg; assay type: ADME, organism-based; design: dose 3 mg/kg; conditions: in vivo
Mus musculus [7] = experiment: Drug level in nude mouse plasma at 100 mg/kg, po; assay type: ADME, organism-based; design: dose 100 mg/kg, route oral; conditions: in vivo

Vascular endothelial growth factor receptor 2, sequence (P35968 whole entry): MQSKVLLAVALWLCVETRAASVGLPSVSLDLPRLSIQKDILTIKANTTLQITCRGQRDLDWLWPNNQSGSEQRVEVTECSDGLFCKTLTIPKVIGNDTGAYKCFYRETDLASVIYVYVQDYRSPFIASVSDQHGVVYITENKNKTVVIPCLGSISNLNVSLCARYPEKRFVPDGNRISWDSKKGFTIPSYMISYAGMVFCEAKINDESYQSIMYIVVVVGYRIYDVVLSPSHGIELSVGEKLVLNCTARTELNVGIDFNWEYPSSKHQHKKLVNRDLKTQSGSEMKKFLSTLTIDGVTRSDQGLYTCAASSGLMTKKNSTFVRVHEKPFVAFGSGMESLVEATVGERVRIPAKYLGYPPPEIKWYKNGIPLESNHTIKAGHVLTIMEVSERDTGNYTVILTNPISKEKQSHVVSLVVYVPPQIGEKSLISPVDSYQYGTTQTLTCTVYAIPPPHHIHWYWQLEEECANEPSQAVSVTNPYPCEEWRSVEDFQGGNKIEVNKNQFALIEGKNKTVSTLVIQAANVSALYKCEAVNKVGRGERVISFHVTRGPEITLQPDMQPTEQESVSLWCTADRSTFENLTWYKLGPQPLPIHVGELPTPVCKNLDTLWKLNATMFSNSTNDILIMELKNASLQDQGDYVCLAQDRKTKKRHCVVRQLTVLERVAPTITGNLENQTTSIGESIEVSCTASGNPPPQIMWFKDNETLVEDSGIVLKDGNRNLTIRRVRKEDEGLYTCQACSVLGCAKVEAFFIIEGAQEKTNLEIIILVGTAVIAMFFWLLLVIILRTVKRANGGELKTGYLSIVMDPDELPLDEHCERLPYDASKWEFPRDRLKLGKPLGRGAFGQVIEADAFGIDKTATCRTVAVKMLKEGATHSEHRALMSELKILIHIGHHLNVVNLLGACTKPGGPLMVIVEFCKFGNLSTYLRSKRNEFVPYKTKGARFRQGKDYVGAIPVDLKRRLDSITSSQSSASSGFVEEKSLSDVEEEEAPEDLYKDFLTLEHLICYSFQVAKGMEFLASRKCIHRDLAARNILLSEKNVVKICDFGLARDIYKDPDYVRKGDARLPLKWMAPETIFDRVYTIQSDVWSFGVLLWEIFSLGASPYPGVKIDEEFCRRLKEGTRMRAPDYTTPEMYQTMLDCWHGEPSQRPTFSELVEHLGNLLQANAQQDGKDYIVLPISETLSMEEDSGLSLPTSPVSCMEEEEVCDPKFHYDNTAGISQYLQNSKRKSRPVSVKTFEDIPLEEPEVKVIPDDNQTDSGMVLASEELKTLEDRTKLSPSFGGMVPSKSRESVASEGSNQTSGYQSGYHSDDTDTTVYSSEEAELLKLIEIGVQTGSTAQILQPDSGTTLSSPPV
Cyclin-dependent kinase 1, sequence (P06493 whole entry): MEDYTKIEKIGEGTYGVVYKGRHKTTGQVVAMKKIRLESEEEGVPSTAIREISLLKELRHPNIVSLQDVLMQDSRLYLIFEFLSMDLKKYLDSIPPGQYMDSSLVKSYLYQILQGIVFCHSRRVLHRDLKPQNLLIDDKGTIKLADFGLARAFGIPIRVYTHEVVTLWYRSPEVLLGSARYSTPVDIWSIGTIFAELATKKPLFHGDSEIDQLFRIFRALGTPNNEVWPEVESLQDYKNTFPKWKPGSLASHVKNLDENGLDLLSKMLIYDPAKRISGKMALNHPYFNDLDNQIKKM

| SMILES | IC50 [1] [µM] | IC50 [2] [µM] | other results |
| --- | --- | --- | --- |
| COc1cccc(Nc2ncc(C#N)c(-c3ccccc3)n2)c1 | 0.38 | 4.2 | – |
| N#Cc1cnc(Nc2ccc(CCO)cc2)nc1-c1cc2ccccc2[nH]1 | 1.4 | 1.7 | – |
| COc1ccc(Nc2ncc(C#N)c(-c3ccccc3)n2)cc1 | 0.49 | 3.3 | – |
| CC(C)(C)c1nc(Nc2ccc(CCO)cc2)ncc1C#N | 1.6 | 1.1 | – |
| COc1cc(Nc2ncc(C#N)c(-c3ccccc3)n2)ccc1CN1CCCC1 | 0.091 | 9 | – |
| CC(C)(O)c1ccc(-c2nc(Nc3ccc(CCO)cc3)ncc2C#N)cc1 | 0.41 | 2.7 | – |
| Cc1ccc(Nc2ncc(C#N)c(-c3ccccc3)n2)cc1 | 1 | 3.5 | – |
| N#Cc1cnc(Nc2ccc(CCO)cc2)nc1-c1ccc(Br)cc1 | 0.18 | 2 | – |
| N#Cc1cnc(Nc2ccc(CCO)cc2)nc1-c1ccc2[nH]ccc2c1 | 0.09 | 0.41 | – |
| N#Cc1cnc(Nc2ccc(CCN3CCCC3)cc2)nc1-c1ccccc1 | 0.11 | 6.5 | – |
| COc1ccccc1Nc1ncc(C#N)c(-c2ccccc2)n1 | > 10 | > 10 | – |
| N#Cc1cnc(Nc2ccccc2)nc1-c1ccccc1 | 1 | > 10 | – |
| CC(C)(N)c1ccc(-c2nc(Nc3cccc(CCN4CCOCC4)c3)ncc2C#N)cc1 | 0.055 | 5.7 | – |
| N#Cc1cnc(Nc2ccc(CCC(=O)N3CCOCC3)cc2)nc1-c1ccccc1 | 0.18 | 2.1 | – |
| N#Cc1cnc(Nc2nc3ccccc3[nH]2)nc1-c1ccccc1 | 10 | > 10 | – |
| N#Cc1cnc(Nc2cccc(CN3CCOCC3)c2)nc1-c1ccccc1 | 0.36 | 2 | – |

| SMILES | IC50 [1] [µM] | IC50 [2] [µM] | other results |
| --- | --- | --- | --- |
| N#Cc1cnc(Nc2ccc(CCO)cc2)nc1-c1cccs1 | 0.082 | 0.47 | – |
| Cc1cc2cc(Nc3ncc(C#N)c(-c4ccccc4)n3)ccc2[nH]1 | 0.41 | 3.3 | – |
| COc1ccc(-c2nc(Nc3ccc(CCO)cc3)ncc2C#N)cc1 | 0.15 | 1.5 | – |
| CC(C)(N)c1ccc(-c2nc(Nc3ccc(CCN4CCOCC4)cc3)ncc2C#N)cc1 | 0.027 | 4.1 | bioavailability [3]: 44%; Activity (Mus musculus [4]): Not Active; half-life [5]: 7 h; AUC [6]: 15.6 µM·h; concentration (Mus musculus [7]): 12 µM |
| N#Cc1cnc(Nc2ccccc2Cl)nc1-c1ccccc1 | > 10 | > 10 | – |
| CCc1nccn1CCc1ccc(Nc2ncc(C#N)c(-c3ccc(C(C)(C)N)cc3)n2)cc1 | 0.094 | 4.8 | – |
| N#Cc1cnc(Nc2ccc(CCO)cc2)nc1-c1nc2ccccc2s1 | 0.34 | 0.56 | – |
| CC(C)(N)c1ccc(-c2nc(Nc3ccc(CCO)cc3)ncc2C#N)cc1 | 0.052 | 1.6 | – |
| N#Cc1cnc(Nc2ccc3ccccc3c2)nc1-c1ccccc1 | 2.1 | > 10 | – |
| N#Cc1cnc(Nc2ccc(CCO)cc2)nc1-c1ccc(S(N)(=O)=O)cc1 | 0.2 | 1.9 | – |
| CN1CCN(CCc2ccc(Nc3ncc(C#N)c(-c4ccc(C(C)(C)N)cc4)n3)cc2)CC1 | 0.021 | 5.6 | – |
| N#Cc1cnc(Nc2ccc(CN3CCCC3)cc2)nc1-c1ccccc1 | 0.061 | 6.2 | – |
| N#Cc1cnc(Nc2ncccn2)nc1-c1ccccc1 | > 10 | > 10 | – |
| CC(C)(N)c1ccc(-c2nc(Nc3ccc(OCCN4CCOCC4)cc3)ncc2C#N)cc1 | 0.45 | 21 | – |
| N#Cc1cnc(Nc2ccc(CCO)cc2)nc1-c1ccccc1 | 0.2 | 2 | – |
| N#Cc1cnc(Nc2ccc(Cl)cc2)nc1-c1ccccc1 | > 10 | > 10 | – |
